≈ marks a conversion by molar mass, not a printed value.
Legend:
[1] = target: T1, Amine oxidase [flavin-containing] B (Homo sapiens, UniProt P27338); assay: Inhibition of recombinant MAO-B (unknown origin) using benzylamine as a substrate by MAO assay; assay type: toxicity
T1 sequence (P27338 whole entry): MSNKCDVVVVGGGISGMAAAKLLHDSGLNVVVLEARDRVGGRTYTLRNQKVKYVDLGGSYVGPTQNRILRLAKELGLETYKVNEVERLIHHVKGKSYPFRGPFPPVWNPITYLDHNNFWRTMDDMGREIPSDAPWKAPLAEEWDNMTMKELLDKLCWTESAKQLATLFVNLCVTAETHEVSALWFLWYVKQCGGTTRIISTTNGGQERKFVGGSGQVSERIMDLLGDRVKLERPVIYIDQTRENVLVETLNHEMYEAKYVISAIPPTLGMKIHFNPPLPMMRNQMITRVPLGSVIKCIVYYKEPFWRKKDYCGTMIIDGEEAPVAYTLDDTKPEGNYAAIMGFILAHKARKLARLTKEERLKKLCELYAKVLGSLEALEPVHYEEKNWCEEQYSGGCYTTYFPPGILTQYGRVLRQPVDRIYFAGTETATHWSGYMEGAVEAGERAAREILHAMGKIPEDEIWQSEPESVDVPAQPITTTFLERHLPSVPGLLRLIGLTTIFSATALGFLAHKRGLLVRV

[2] = tested on: Mycobacterium tuberculosis; assay: Anti-mycobacterial activity against Mycobacterium tuberculosis H37Rv assessed as bacterial growth inhibition incubated for 7 days by microplate Alamar blue assay; assay type: functional; details: 168 h, time 7 day
[3] = tested on: Mycobacterium tuberculosis; assay: Anti-mycobacterial activity against Mycobacterium tuberculosis clinical isolate assessed as bacterial growth inhibition incubated for 7 days by microplate Alamar blue assay; assay type: functional; details: 168 h, time 7 day
[4] = target: T2, Amine oxidase [flavin-containing] A (Homo sapiens, UniProt P21397); assay: Inhibition of recombinant MAO-A (unknown origin) using kynuramine as a substrate by MAO assay; assay type: toxicity
T2 sequence (P21397 whole entry): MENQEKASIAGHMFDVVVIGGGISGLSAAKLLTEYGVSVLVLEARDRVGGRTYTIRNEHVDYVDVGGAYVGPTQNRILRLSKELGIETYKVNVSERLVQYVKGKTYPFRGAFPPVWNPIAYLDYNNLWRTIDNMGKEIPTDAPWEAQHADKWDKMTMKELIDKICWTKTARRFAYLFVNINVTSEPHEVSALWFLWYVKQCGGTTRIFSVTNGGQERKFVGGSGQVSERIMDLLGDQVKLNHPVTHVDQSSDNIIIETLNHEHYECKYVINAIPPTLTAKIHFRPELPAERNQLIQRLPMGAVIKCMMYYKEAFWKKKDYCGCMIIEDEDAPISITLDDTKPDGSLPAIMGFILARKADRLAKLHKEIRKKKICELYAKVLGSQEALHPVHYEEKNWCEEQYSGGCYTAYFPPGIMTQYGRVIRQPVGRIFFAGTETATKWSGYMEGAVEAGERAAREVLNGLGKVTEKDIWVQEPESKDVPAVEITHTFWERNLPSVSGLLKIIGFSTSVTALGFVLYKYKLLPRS

Molecule `Clc1ccccc1C(c1ccccc1)(c1ccccc1)n1ccnc1` [CLOTRIMAZOLE] has an IC50 [1] of 31.2 µM, an MIC [2] of 2.26 µM (≈ 0.779 µg/mL) and an MIC50 [3] of 0.87 µM (≈ 0.3 µg/mL). The MIC90 [3] was 1.56 µM (≈ 0.538 µg/mL) and the IC50 [4] was 25.4 µM.

With `NNC(=O)c1ccncc1` [ISONIAZID] the MIC50 [3] was < 0.2 µM and the MIC90 [3] was < 0.2 µM.

For `CCC(C)n1ncn(-c2ccc(N3CCN(c4ccc(OCC5COC(Cn6cncn6)(c6ccc(Cl)cc6Cl)O5)cc4)CC3)cc2)c1=O` (stereo unspecified) [ITRACONAZOLE], the MIC [2] was > 35 µM.

`CC(=O)NC[C@H]1CN(c2ccc(N3CCOCC3)c(F)c2)C(=O)O1` [LINEZOLID] was tested, and the IC50 [1] was 0.619 µM, the MIC [2] was 2.31 µM (≈ 0.779 µg/mL) and the MIC50 [3] was 0.34 µM (≈ 0.115 µg/mL). It also gave an MIC90 [3] of 0.78 µM (≈ 0.263 µg/mL) and an IC50 [4] of 6.52 µM.

`Clc1ccc(COC(Cn2ccnc2)c2ccc(Cl)cc2Cl)c(Cl)c1` (stereo unspecified) [MICONAZOLE] was tested, and the IC50 [1] was 13.2 µM, the MIC [2] was 3.74 µM (≈ 1.56 µg/mL) and the MIC50 [3] was 1 µM (≈ 0.416 µg/mL). The MIC90 [3] was 1.56 µM (≈ 0.649 µg/mL) and the IC50 [4] was 37.8 µM.

In the case of `CC[C@@H]([C@H](C)O)n1ncn(-c2ccc(N3CCN(c4ccc(OC[C@@H]5CO[C@@](Cn6cncn6)(c6ccc(F)cc6F)C5)cc4)CC3)cc2)c1=O` [POSACONAZOLE], the MIC [2] is reported as > 35 µM.

With `CO[C@H]1/C=C/O[C@@]2(C)Oc3c(C)c(O)c4c(O)c(c(/C=N/N5CCN(C)CC5)c(O)c4c3C2=O)NC(=O)/C(C)=C\C=C\[C@H](C)[C@H](O)[C@@H](C)[C@@H](O)[C@@H](C)[C@H](OC(C)=O)[C@@H]1C` [RIFAMPIN] the MIC50 [3] was < 0.04 µM and the MIC90 [3] was < 0.04 µM.
